According to patent publication US20090137493A1, “Inhibition of tumor metastases using protein kinase C (PKC) inhibitors” (priority 2007, published 2009):
Bridges are numbered along the chain shown (N, C = ends). Where no end group is shown, it is not given here.

Legend:
JC tumor cells = experiment: Growth rate of JC tumor cells in vitro; type: cell-based, mouse; settings: doses of 0, 1, 5 and 10 μM, compared to TAT carrier peptide control
Procedure: FIGS. 6B-6C are bar graphs showing the affect of the αV5-3-TAT peptide on growth rate of JC tumor cells (FIG. 6B) and 4T1 tumor cells (FIG. 6C) in vitro. The cells treated with the TAT carrier peptide (TAT) or with αV5-3-TAT peptide (PKC alpha inhibitor), at doses of 0, 1, 5, and 10 μM.
To determine if the effects observed with the α and βIIPKC peptide inhibitors was due to a decrease in metastasis as opposed to a decrease in primary tumor growth, animals injected with 4T1 tumor cells were treated with saline, the αV5-3-TAT conjugate peptide (αPKC), or the βIIV5-3-TAT conjugate peptide (βPKC) and the number of tumors cells at the primary site of injection were determined.

[1] = tested on: matrix metalloproteinase 2 (MMP2); experiment: MMP2 activity in tumor cells from treated animals; type: in vivo; settings: cells from primary tumors of treated animals, versus saline or TAT, FIG. 10C
Source text: FIG. 10C is a bar graph showing the relative levels of matrix metalloproteinase 2 (MMP2) activity in tumor cells from animals treated with saline or TAT (untreated) or the αV5-3-TAT peptide (aV5-3).
(§1) Cells from primary tumors in animals treated with the αPKC inhibitor were also isolated and assayed for levels of CXCR4 (FIG. 10B) and levels of matrix metalloproteinase 2 (MMP2) activity (FIG. 10C).

[2] = Blood cell numbers (white blood cells, lymphocytes, neutrophils) in treated animals; type: in vivo
Source text: FIGS. 11A-11B are bar graphs showing the relative serum levels of liver enzymes aspartate transaminase (AST; FIG. 11A) and alanine transaminase (ALT; FIG. 11B) in animals treated with saline or TAT (untreated) or the αV5-3-TAT peptide (aV5-3). FIGS. 11C-11E are bar graphs showing the relative serum levels of white blood cells (FIG. 11C), lymphocytes (FIG. 11D), and neutrophils (FIG. 11E).
Rather, the numbers of white blood cells (FIG. 11C), lymphocytes (FIG. 11D), and neutrophils (FIG. 11E) were all increased in αV5-3 treated animals compared to control (TAT) treated animals.

4T1 cells = experiment: Wound healing (migration) assay, 4T1; type: cell-based, mouse; settings: peptide 1 uM, re-applied every 2 h for 8 h
Procedure: FIGS. 16A-16D are micrographs showing the efficacy of TAT carrier peptide (TAT; FIG. 16A), αV5-3-TAT peptide (Alpha; FIG. 16B), βIIV5-3 peptide (Beta2; FIG. 16C), and εV1-2 (Epsilon; FIG. 16D) on 4T1 cell migration.
To investigate the role of PKC inhibitors in reducing the migration of tumor cells, in vitro migration assays were performed using MDA-MB-231 breast cancer cells (FIGS. 12A-12D), MCF-7 breast cancer cell (FIGS. 13A-13D), JC cells (FIGS. 15A-15D), and 4T1 cells (FIGS. 16A-16D), in the presence of TAT carrier peptide (TAT), αV5-3-TAT peptide (Alpha), βIIV5-3 peptide (Beta2), or εV1-2 peptide (Epsilon).
Wound healing assay: Human or mouse breast cancer cell lines were grown in 6-well plates until about 90% confluent. Cells were then grown in serum free media overnight, before media was changed to media +1% FBS and peptide PKC inhibitors added (1 uM), at the same time a pipette tip was drawn across the cell layer to create a scrape ‘wound’. PKC inhibitors were re-applied every 2 h for a total of 8 h, before cells were left for a further 12 h and then the scrape was examined under phase contrast microscopy.

tumor cells = experiment: Histology of lung tissue after fatpad implantation or intravenous injection of tumor cells; type: in vivo, mice; settings: four weeks after fatpad implantation or two weeks after intravenous injection of tumor cells, versus TAT
Source text: FIGS. 8A-8B are computer-generated photomicrographs of lung tissue from mice four weeks following fatpad implantation of tumor cells. Osmotic pumps were implanted 1 week after fatpad implantation, for delivering TAT (control; FIG. 8A) or αV5-3-TAT peptide (PKC a inhibitor; FIG. 8B).
FIGS. 8C-8D are computer-generated photomicrographs of lung tissue from mice two weeks after intravenous injection of tumor cells. Osmotic pumps were implanted two days prior to […], for delivering TAT (control; FIG. 8C) or αV5-3-TAT peptide (PKC a inhibitor; FIG. 8D).
FIGS. 8A-8D are computer-generated photomicrographs of lung tissue from mice four weeks following fatpad implantation of tumor cells (FIGS. 8A-8B) or two weeks after intravenous injection of tumor cells (FIGS. 8C-8D).

CXCR4 chemokine receptor = experiment: CXCR4 expression on the surface of tumor cells from treated animals; type: in vivo; settings: cells from primary tumors of treated animals, versus TAT, FIG. 10B
Source text: FIG. 10B is a bar graph showing the relative expression levels of CXCR4 chemokine receptor on the surface of tumor cells from animals treated with the TAT carrier peptide (TAT) or the αV5-3-TAT peptide (Alpha inhibitor).
as §1

αPKC = molecular target: T1, αPKC (Mus musculus, UniProt P20444); experiment: Translocation of αPKC in tumor cells (immunoblot of cytosol and particulate fractions); type: in vivo; settings: FIG. 5A
T1 construct: endogenous in cells; host or cells: 4T1 murine mammary tumour cells grown as tumours in Balb/c mice
Procedure: FIGS. 5A-5B are bar graphs showing the percentage of translocation of αPKC (FIG. 5A) and βIIPKC (FIG. 5B) […] in tumor cells treated with αV5-3-TAT peptide.
To further characterize inhibition of metastasis using the α and βIIPKC inhibitors, the percentage of translocation of αPKC (FIG. 5A) and βIIPKC (FIG. 5B), […] was measured.

With “YGRKKRRQRRR-CC-QLVIAN (YGRKKRRQRRRCCQLVIAN; disulfide 12-13 (inferred)) [αV5-3-TAT]” the “inhibition of growth of JC tumor cells in vitro” value (JC tumor cells) was “does not substantially inhibit”, the “decrease of relative levels of MMP2 activity in tumor cells” value [1] was “about 30%” and the “numbers of white blood cells” value ([2]; compared to control (TAT) treated animals, FIG. 11C) was “increased”. The numbers of lymphocytes ([2]; compared to control (TAT) treated animals, FIG. 11D) was “increased”, the numbers of neutrophils ([2]; compared to control (TAT) treated animals, FIG. 11E) was “increased” and the signs of immunosuppression ([2]; treated animals, FIGS. 11C-11E) was “no signs of immunosuppression”. For the same substance, the “migration of 4T1 cells in vitro” value (4T1 cells) was “did not affect”, the “invasion of lung tissues by tumor cells (histology)” value (tumor cells) was “reduced” and the “decrease of relative expression levels of CXCR4 chemokine receptor on the surface of tumor cells” value (CXCR4 chemokine receptor) was 4-5 fold. The “reduction of αPKC translocation” value (αPKC) was “about 40%”.
